Results published in patent US12110294B2, “CD73 compounds” (Gilead Sciences, Inc., priority 2020, dated 2024).
Where two headings read alike, the source gives them in different places.

Key:
CD73 [1] = target: T1, CD73 (Homo sapiens, UniProt P21589); experiment: CD73 Biochemical IC50 Assay; settings: final AMP 15 uM, final CD73 0.3 nM, 25 mM Tris pH 7.4, 5 mM MgCl2, no phosphate
T1 construct: purchased R&D system
T1 sequence (P21589 27-549): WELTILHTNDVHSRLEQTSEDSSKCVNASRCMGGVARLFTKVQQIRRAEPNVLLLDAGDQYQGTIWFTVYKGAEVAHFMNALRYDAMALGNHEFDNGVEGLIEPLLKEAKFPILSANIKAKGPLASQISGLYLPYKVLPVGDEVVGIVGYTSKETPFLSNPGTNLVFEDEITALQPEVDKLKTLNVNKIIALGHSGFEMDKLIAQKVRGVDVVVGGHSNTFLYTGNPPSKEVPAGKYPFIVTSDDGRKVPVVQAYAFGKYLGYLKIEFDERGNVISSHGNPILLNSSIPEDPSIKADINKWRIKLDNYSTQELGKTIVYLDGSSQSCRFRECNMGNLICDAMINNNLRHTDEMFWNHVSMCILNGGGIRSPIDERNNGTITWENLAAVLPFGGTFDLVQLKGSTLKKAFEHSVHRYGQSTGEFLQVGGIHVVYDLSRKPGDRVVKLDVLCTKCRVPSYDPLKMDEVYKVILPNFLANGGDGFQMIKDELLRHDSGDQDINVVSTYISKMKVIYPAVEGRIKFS
Description: CD73 Biochemical IC50 Assay
Compound serial dilutions were pre-spotted into Thermo Nunc assay plate. 50 μL CD73 enzyme buffer (CD73 purchased from R&D system=0.6 nM, 25 mM Tris, pH 7.4, 5 mM MgCl2) was added into the assay plate and incubated for 15 mins. […] The samples were run using Rapid fire.

[2] = target: T2, CD73 activity in MDA-MB-231-GFP cells (Homo sapiens, UniProt P21589); experiment: MDA-MB-231 Cell Based CD73 Activity Assay; settings: 10000 cells per well, RPMI medium with 10% human plasma, overnight compound treatment, AMP 200 μM
T2 construct: endogenous in cells; host or cells: MDA-MB-231-GFP cells
T2 sequence (P21589 27-549): T1 sequence (P21589 27-549)
Description: MDA-MB-231 Cell Based CD73 Activity Assay
MDA-MB-231-GFP cells were seeded in 384-well plates (Greiner 781946) at a density of 10000 cells per well in 50 μL of RPMI medium with 10% HP (human plasma). Cells were plated into assay plate with compounds pre-spotted, for an overnight compound treatment. 50 μL of 400 μM AMP (final concentration 200 μM) using a Bio-tek dispenser. Plates were incubated for 100 mins. […] The samples were run using Rapid fire.

CD73 [3] = target: T1, CD73; type: biochemical; settings: 1 mM NaH2PO4 in enzyme buffer, final AMP 15 uM, final CD73 0.3 nM
[4] = target: T2, CD73 activity in MDA-MB-231-GFP cells; experiment: MDA-MB-231 Cell Based CD73 Activity Assay (DMEM); settings: 3000 cells per well, DMEM medium with 10% human plasma, overnight compound treatment, AMP 200 uM

## O=c1[nH]cc(-c2cc([C@@H]3C[C@H]3c3ccc(F)cc3)c3nccn3n2)c(=O)[nH]1 (racemic) [Example 30, 5-(8-((1S,2S)-2-(4-fluorophenyl)cyclopropyl)imidazo[1,2-b]pyridazin-6-yl)pyrimidine-2,4(1H,3H)-dione and 5-(8-((1R,2R)-2-(4-fluorophenyl)cyclopropyl)imidazo[1,2-b]pyridazin-6-yl)pyrimidine-2,4(1H,3H)-dione]
CD73 [1]
  IC50: 2.36 nM
[2]
  EC50: 2.56 nM
CD73 [3]
  IC50: 2.08 nM
[4]
  EC50: 5.11 nM

## O=c1[nH]cc(-c2cc([C@@H]3C[C@H]3c3ccc(F)cc3F)c3nccn3n2)c(=O)[nH]1 (racemic) [Example 31, 5-(8-((1S,2S)-2-(2,4-difluorophenyl)cyclopropyl)imidazo[1,2-b]pyridazin-6-yl)pyrimidine-2,4(1H,3H)-dione and 5-(8-((1R,2R)-2-(2,4-difluorophenyl)cyclopropyl)imidazo[1,2-b]pyridazin-6-yl)pyrimidine-2,4(1H,3H)-dione]
CD73 [1]
  IC50: 5.49 nM
[2]
  EC50: 3.84 nM
CD73 [3]
  IC50: 0.93 nM
[4]
  EC50: 4.83 nM

## O=c1[nH]cc(-c2cc([C@@H]3C[C@H]3c3ccc(F)c(F)c3)c3nccn3n2)c(=O)[nH]1 (racemic) [Example 33, 5-(8-((1S,2S)-2-(3,4-difluorophenyl)cyclopropyl)imidazo[1,2-b]pyridazin-6-yl)pyrimidine-2,4(1H,3H)-dione and 5-(8-((1R,2R)-2-(3,4-difluorophenyl)cyclopropyl)imidazo[1,2-b]pyridazin-6-yl)pyrimidine-2,4(1H,3H)-dione]
CD73 [1]
  IC50: 9.38 nM
[2]
  EC50: 2.04 nM
CD73 [3]
  IC50: 0.93 nM
[4]
  EC50: 4.71 nM

## N#Cc1cccc([C@H]2C[C@@H]2c2cc(-c3c[nH]c(=O)[nH]c3=O)nn3ccnc23)c1 [Example 50, 3-((1S,2S)-2-(6-(2,4-dioxo-1,2,3,4-tetrahydropyrimidin-5-yl)imidazo[1,2-b]pyridazin-8-yl)cyclopropyl)benzonitrile]
CD73 [1]
  IC50: 10.7 nM
[2]
  EC50: 2.45 nM
CD73 [3]
  IC50: 1.37 nM
[4]
  EC50: 5.84 nM

## O=c1[nH]cc(-c2cc(N3CCC[C@H]3c3ccc(F)cc3)c3nccn3n2)c(=O)[nH]1 [Example 116, (S)-5-(8-(2-(4-fluorophenyl)pyrrolidin-1-yl)imidazo[1,2-b]pyridazin-6-yl)pyrimidine-2,4(1H,3H)-dione]
CD73 [1]
  IC50: > 2500 nM
[2]
  EC50: 718 nM
